The experiment deals with Neuropeptide Y receptor type 2 (Homo sapiens) (UniProt P49146). Description: NPY-Y2 antagonist potency, selectivity check, dose response, counter-screen for NPY-Y1 antagonist project, cell-based (AID 1278). The following applies: NPY-Y2 expressing cells, antagonism, cell-based HTS. (A counterscreen serves to expose hits that act by an unwanted route or on another target.)

The source made the active and inactive calls. The rule behind the calls is not given here.

Usually IC50 stands for the concentration needed to halve the response being measured.

Neuropeptide Y receptor type 2 (Homo sapiens), sequence (P49146 whole entry, looked up): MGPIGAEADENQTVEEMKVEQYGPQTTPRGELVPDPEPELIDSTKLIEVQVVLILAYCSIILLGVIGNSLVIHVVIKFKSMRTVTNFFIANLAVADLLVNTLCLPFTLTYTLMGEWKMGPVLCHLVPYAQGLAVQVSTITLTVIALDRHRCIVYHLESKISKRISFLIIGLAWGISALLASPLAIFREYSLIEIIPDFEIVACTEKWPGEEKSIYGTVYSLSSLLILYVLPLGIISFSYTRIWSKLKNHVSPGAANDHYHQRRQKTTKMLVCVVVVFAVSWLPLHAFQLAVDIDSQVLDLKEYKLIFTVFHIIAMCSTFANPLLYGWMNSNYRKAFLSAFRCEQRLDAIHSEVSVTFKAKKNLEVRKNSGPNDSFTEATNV

For `CCc1cc(-c2[nH]ncc2-c2ccc3c(c2)OCO3)c(O)cc1O`, the IC50 was < 35 µM (inactive).

The values above are taken from PubChem BioAssay AID1278 (The Scripps Research Institute Molecular Screening Center, 2008).
